In assay [1] the test system is human degenerative disc NP cells. Put plainly: Caspase 9 Lumi-Glo assay, cytokine induced. It counts as cell-based. The following applies: 48 hrs. As to the method: Apoptosis induced in NP cells (rat and human) as result of treatment with pro-inflammatory cytokines (IL-1β and TNFα) was determined using Caspase 3/7 and Caspase 9 specific Lumi-Glo assays (Promega, Madison). Briefly, NP cells were plated and treated with either IL-1β alone or in combination with TNFα only or in presence of CTGF and TGFβ1 for 48 hrs, followed by addition of specific reagents for Caspase 3/7 and Caspase 9 as per the manufacturer's instructions. Cells were incubated for another 4 hrs at 37° C., and plates were read in a multi-well luminescence plate reader.

The subject of assay [2] is rat-tail injured disc NPs. Put plainly: Pre-clinical rodent needle puncture disc injury model of DDD, intra-discal injection. The class given is in vivo, Wistar rat. The protocol: 12-week old female Wistar rats (Charles River Laboratories International, Inc., MA, USA) were used in order to develop a pre-clinical rodent model of DDD and to evaluate the therapeutic potential of NCCM, CTGF and TGFβ1 in these pre-clinical rodent models. Experiments were performed in accordance with the Guide for the Care and Use of Laboratory Animals, and the experimental protocols were approved by the ethics approval board of Toronto Western Hospital, Toronto, ON, Canada. The surgical procedure was as follows: Anesthesia was achieved using isofluorane (5 L/min plus 1 L/min O2) and maintained at 3 L/min. Once deeply anaesthetized, the animal was affixed on a stereotactic procedure apparatus (Model 900, Kopf Instruments California USA) with nose cone inhalation. For animal experiments, the tail was shaved and prepped with isopropanol in a sterile manner. Fluoroscopy was used to visualize needle penetration and to ensure that the needle penetrated into the center of the NP. For disc injury, a 26-gauge (G), 35° beveled, 0.75 inches high needle (Hamilton Company, USA) mounted on a Hamilton syringe was used. The needle was advanced completely through the selected tail IVD to penetrate the full thickness inclusive of the annulus fibrosus on both sides of the disc. Confirmation of needle placement was made using fluoroscopy and maintained in position for 2 minutes, withdrawn halfway to the center of the NP and left there for 1 minute and then slowly withdrawn completely over a 1-minute period. The animals were then removed from the stereotactic apparatus and allowed to recover in a warmed cage. At the end of study period i.e. 72 hrs-10 weeks, animals were humanely euthanized using CO2 and each vertebral lumbar/caudal motion segment was dissected aseptically. IVDs were either fixed in formalin for histological analysis or the nucleus pulposus (healthy/injured) was harvested and lysed in RIPA buffer (50 mM Tris, pH=7.4, 150 mM NaCl, 1% NP-40 and protease inhibitor cocktail) for western blotting.
To determine the regenerative potential of NCCM, CTGF or TGFβ1, 4 IVDs per animal of 12 week old rats were injured using a 26G needle as described above. Four weeks post-injury, animals were randomized into groups of six and an intra-discal injection (˜8 μL) of either NCCM, CTGF (100 ng/mL) or TGFβ1 (10 ng/mL) was given under local anesthesia. For NCCM injected animals, the control group consisted of animals that received an intra-discal injection (˜8 μL) of Hybridoma culture medium only, while phosphate buffered saline (PBS, 1×, pH=7.2) served as control for CTGF and TGFβ1 injected animal groups. Six weeks later, the NPs from injured and control discs were harvested and either fixed in formalin for histological analysis or lysed in RIPA lysis buffer for western blotting. Each of this experiment was repeated independently to ensure reproducibility.
The tissues were fixed in 10% formalin and decalcified in 10% EDTA solution. The decalcified disc was initially split in the mid sagittal plane, embedded in paraffin and 5p thick sections were obtained for histological evaluation. Hemaetoxylin and eosin (H&E) and Safranin-O staining was performed to assess general morphology and proteoglycan content in these tissue sections as previously described^16. For immunohistochemistry/immunofluorescence (IF), paraffin-embedded sections (5 μm) of human degenerative disc NP, bovine NP, healthy canines (NCD) and rat (healthy/injured) discs were deparaffinized in xylene, hydrated in gradient alcohol followed by antigen retrieval in Tris-EDTA buffer (pH=9.0). The sections were incubated with hydrogen peroxide (0.3% v/v) in methanol for 15 minutes to quench the endogenous peroxidase activity, followed by blocking with 10% serum to preclude non-specific binding. Thereafter, the slides were incubated with either rabbit or goat polyclonal/mouse monoclonal primary antibodies overnight (O/N) at 4° C. […]

Assay [3] deals with bovine degenerative disc NP cells. Put plainly: MTT cell viability assay. The class given is cell-based. The settings on record: CTGF 100 ng/ml, TGFβ1 10 ng/ml, 48 hrs-72 hrs. The protocol: (§1) Nucleus pulposus cells (rat, bovine and human) were plated in 96-well flat bottom plates in order to evaluate the effect of treatment with growth factors in cell viability and proliferation assays. Rat NP cells were treated with CTGF, WISP-2 and TGFβ1 in a dose (1 ng/mL-100 ng/mL) and time dependent manner (24 hrs-96 hrs) to determine the optimum dose and time for the assessment of these growth factors on viability. Cell viability was determined using 3-(4,5-dimethylthiazol-2-yl)-2,5-diphenyltetrazolium bromide (MTT, Sigma-Aldrich, USA) as previously described^44. A BrdU-ELISA (colorimetric) assay (Cat #ab126556, Abcam) was used for determining the effect of treatment with CTGF or TGFβ1 on human and rat NP cells (healthy/injured) following the manufacturer's instructions. Briefly, NP cells were treated with CTGF or TGFβ1 alone or in combination for 48 hrs following addition of BrdU reagent O/N in each well. Incorporated BrdU in DNA of proliferating cells was determined using anti-BrdU antibody and quantified by ELISA as per the manufacturer's instructions.

Assay [4] concerns rat-tail disc NP cells (healthy/injured). Put plainly: MTT cell viability assay. It counts as cell-based. The following applies: CTGF 100 ng/ml, TGFβ1 10 ng/ml, 48 hrs-72 hrs. The protocol: as §1
[5] abbreviates: rat tail injured discs, western blots, FIG. 12(b).

These results are taken from patent publication US12465618B2, “Compositions and methods for degenerative disc regeneration” (University Health Network, priority 2015, dated 2025).

For the substance “TGFβ1: Human recombinant transforming growth factor beta 1, Peprotech cat #100-21, identified in NCCM”, the “IL-1β and TNFα induced caspase 9 activity” value in assay [1] is “significant reduction”. Further, the “aggrecan and collagen II (immunohistochemical analysis)” value in assay [2] (intra-discal injection four weeks following injury, 10 weeks post-injury, vs vehicle control) is “strong expression”. Also, the “histological analysis, Safranin-O staining of NP” value in assay [2] (intra-discal injection four weeks following injury, CTGF 100 ng/mL, TGFβ1 10 ng/mL, 10 weeks post-injury, vs PBS) is given as “healthy disc, rich in NCs”. In addition, in assay [2] (setting [5]), the “expression of MMP-13 and Cox2 in NP tissue lysates” value is given as “decreased expression”; the “stem cell marker Oct4 in NP tissue lysates” value is “restoration”. In assay [3], the “cell viability (MTT)” value is “increased the viability”. Also, the “cell viability (MTT)” value in assay [4] is on record as “increased the viability”.
